This is an account of results in article PMC12736958 (Pharmaceutics, 2025).

Where only a bound is given, the exact number is not on record here.

Holding throughout (type): cell-based, canine
A short description of data set [1]: cytotoxicity assay (CCK-8 cell viability). The settings on record: dog, MDCK cells, pH 7.4, MDCK cells, 4 h treatment, read-out: IC50 (cytotoxicity, Cur-equivalent). As for the experimental part: (§1) Madin-Darby Canine Kidney (MDCK) cells were seeded in 96-well plates (1 × 10^5 cells/well) and cultured for 24 h at 37 °C in complete DMEM (10% FBS, 1% penicillin–streptomycin) under 5% CO2. Cells were treated for 4 h with 100 µL of complete DMEM media (pH 7.4) containing crystalline Cur, amorphous Cur, binary Cur/P188 ASD (1:8, w/w), or ternary Cur/P188/TW80 or Cur/P188/SLS ASDs (1:8:1, w/w/w), at Cur-equivalent concentrations of 0 (vehicle), 2, 10, 25, 50, 100, and 200 μg/mL. After treatment, cells were washed three times with PBS (pH 7.4). Cell viability was assessed using a CCK-8 assay: 100 µL of serum-free DMEM and 10 µL of CCK-8 reagent were added to each well, followed by incubation for 2 h. Absorbance was measured at 450 nm using a Multiskan GO microplate reader (Thermo Fisher Scientific, Vantaa, Finland).
(§2) Cell viability was calculated according to the following equation:Viability (%) = [(As − Aᵦ)/(Ac − Aᵦ)] × 100% where
(§3) • As is the absorbance of experimental wells (cells + treatment + CCK-8); • Ac is the absorbance of control wells (cells + medium + CCK-8, no drug); • Aᵦ is the absorbance of blank wells (medium + CCK-8, no cells, no drug).
(§4) All experiments were performed in quintuplicate (n = 5).

Data set [2] has as its system MDCK cells. The data set is described as follows: cytotoxicity assay (CCK-8 cell viability). The settings on record: 4 h treatment. As for the experimental part: as §1, §2, §3, §4
Data set [3] deals with MDCK cells. The data set is described as follows: cellular uptake study (LC-MS/MS of intracellular Cur). The settings on record: 10 min incubation, 5 μg Cur-equivalent (10 μg/mL). As for the experimental part: MDCK cells were seeded in 24-well plates and cultured following the procedures described in Cytotoxicity Assay section. The cells were treated with 500 µL of complete DMEM medium (pH 7.4) containing crystalline Cur, amorphous Cur, binary Cur/P188 ASD (1:8, w/w), or ternary Cur/P188/TW80 or Cur/P188/SLS ASDs (1:8:1, w/w/w), at Cur-equivalent dose of 5 µg per well. After 10 min of incubation, the treatment was terminated by immediate removal of the medium. The cells were then washed three times with ice-cold PBS, lysed with 200 µL of 0.1% SDS (assisted by sonication), and dissolved in methanol at a 1:2 (v/v) ratio. The total intracellular Cur content was quantified using LC-MS/MS. All experiments were performed in quadruplicate (n = 4).
Cur quantification in cellular and rat plasma samples was carried out using a SCIEX QTRAP® 5500 LC-MS/MS system coupled with a SCIEX ExionLC^TM AC system (AB SCIEX, Framingham, MA, USA).
Separation was achieved on an Acquity UPLC® BEH C18 column (100 × 2.1 mm, 1.7 μm; Waters) maintained at 40 °C. […]
Mass spectrometric detection was performed using an IonDrive^TM Turbo V ion (SCIEX, Framingham, MA, USA) source operating in negative electrospray ionization (ESI) mode. Quantification was conducted via multiple reaction monitoring (MRM) at m/z 367.1→133.9 for Cur, and m/z 294.1→250.0 for diclofenac sodium (IS). […]

The IC50 is the concentration at which inhibition is half-maximal. Consider `COc1cc(/C=C/C(=O)CC(=O)/C=C/c2ccc(O)c(OC)c2)ccc1O` [Crystalline Cur, Curcumin], for which the IC50 at 4 h in data set [1] was found to be 82.2 µg/mL. Besides, the “concentrations with negligible toxicity” value in the data set with MDCK cells [2] was at most 25000 ng/mL. The “cellular uptake (% of the administered dose)” value in the data set on MDCK cells [3] came to 0.2%.
